Measured values from patent publication US8163909B2, “Substituted hydroxyethyl amine compounds as beta-secretase modulators and methods of use” (Amgen Inc., priority 2007, dated 2012).
Where two headings read alike, the source gives them in different places.

Experiments:
CYP3A4 (CYP3A) = CYP3A4 (CYP3A) (Homo sapiens, UniProt P08684); assay: in vitro; conditions: microsomes, pH 7.4;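 further: inhibition of CYP3A-mediated 1-hydroxymidazolam formation after 10 min incubation with NADPH, quantified by HPLC MS relative to metabolite produced without test compound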
[1] = system: Aβ40 in conditioned medium of cells stably expressing Amyloid Precursor Protein (APP); assay: In vitro BACE cell-based assay (Aβ40 in conditioned medium, sandwich ELISA); conditions: Homo sapiens;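 further: compounds added as a dilution series, secreted peptide quantified by europium time-resolved fluorescence readout, potency fitted from percent of control versus compound concentration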
[2] = Microsomal stability assay, rat liver microsomes;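 further: rat liver microsomes (0.25 mg/mL) with about 1 µM compound plus 1 mM NADPH, pH 7.4, 37 °C for 30 min, parent left measured by LC-MS/MS against 0 min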
[3] = biological target: Beta Secretase enzyme (BACE) (Homo sapiens, UniProt P56817); assay: In vitro enzymatic BACE FRET (fluorescence resonance energy transfer) assay; format: biochemical;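 further: fluorescence read after 1 h with 50 nM quenched peptide substrate spanning the BACE cleavage site, in pH 4.2 acetate buffer containing 10% DMSO and nonionic detergent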
[4] = Microsomal stability assay, human liver microsomes;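 further: pooled human liver microsomes at 0.25 mg/mL with 1 µM compound and NADPH at 37 °C, pH 7.4, for 30 min, unchanged parent quantified by LC-MS/MS against the 0 min sample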
CYP2D6 = CYP2D6 (Homo sapiens, UniProt P10635); assay: CYP2D6 inhibition assay (bufuralol, pooled human liver microsomes)
[5] = HEK293, HEK cell-based assay, IC50's in uM, read-out: HEK cell assay
[6] = BACE enzyme assay, IC50's in uM, read-out: BACE1 FRET assay
[7] = 2D6 IC50 (uM), CYP enzyme inhibition
[8] = HEK293, HEK cells, read-out: HEK cell assay (IC50)
[9] = read-out: BACE1 FRET assay (IC50)
[10] = HEK293, HEK cell-based assay IC50, read-out: HEK cell assay
[11] = BACE enzyme assay IC50, read-out: BACE1 FRET assay
[12] = 2D6 IC50 (uM), CYP2D6 inhibition
[13] = 2D6 IC50, CYP enzyme inhibition
[14] = HEK293, HEK cells, read-out: HEK cell assay
[15] = BACE enzyme assay, read-out: BACE1 FRET assay
[16] = HEK293, cell-based assay, HEK cells, IC50's in uM, read-out: HEK cell assay

Chain of Beta Secretase enzyme (BACE) (P56817 46-501): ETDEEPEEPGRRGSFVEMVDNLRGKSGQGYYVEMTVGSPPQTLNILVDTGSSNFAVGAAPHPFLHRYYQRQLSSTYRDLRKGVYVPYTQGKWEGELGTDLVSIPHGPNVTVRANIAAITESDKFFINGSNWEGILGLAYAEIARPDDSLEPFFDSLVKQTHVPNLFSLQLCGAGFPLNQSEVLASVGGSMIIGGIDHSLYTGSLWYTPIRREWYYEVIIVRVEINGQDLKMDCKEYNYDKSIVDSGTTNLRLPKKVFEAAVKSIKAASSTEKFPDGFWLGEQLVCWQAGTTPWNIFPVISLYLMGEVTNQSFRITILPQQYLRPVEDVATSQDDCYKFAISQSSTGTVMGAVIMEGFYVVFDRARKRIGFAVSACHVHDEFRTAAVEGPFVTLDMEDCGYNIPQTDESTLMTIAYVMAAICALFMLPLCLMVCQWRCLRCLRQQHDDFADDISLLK
Chain of CYP3A4 (CYP3A) (P08684 2-503): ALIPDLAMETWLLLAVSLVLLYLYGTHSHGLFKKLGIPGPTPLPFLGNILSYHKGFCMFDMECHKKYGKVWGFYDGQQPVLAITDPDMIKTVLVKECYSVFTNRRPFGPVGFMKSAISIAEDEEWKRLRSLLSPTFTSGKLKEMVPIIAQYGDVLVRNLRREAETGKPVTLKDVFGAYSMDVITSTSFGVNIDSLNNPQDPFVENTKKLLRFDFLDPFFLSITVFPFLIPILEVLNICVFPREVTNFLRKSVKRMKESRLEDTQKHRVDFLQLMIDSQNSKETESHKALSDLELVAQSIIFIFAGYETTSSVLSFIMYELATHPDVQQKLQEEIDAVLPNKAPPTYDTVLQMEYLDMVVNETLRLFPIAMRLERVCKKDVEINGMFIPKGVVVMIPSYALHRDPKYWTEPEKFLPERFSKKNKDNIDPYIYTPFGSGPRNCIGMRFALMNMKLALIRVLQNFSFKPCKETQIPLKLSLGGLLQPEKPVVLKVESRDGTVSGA
Chain of CYP2D6 (P10635 whole entry): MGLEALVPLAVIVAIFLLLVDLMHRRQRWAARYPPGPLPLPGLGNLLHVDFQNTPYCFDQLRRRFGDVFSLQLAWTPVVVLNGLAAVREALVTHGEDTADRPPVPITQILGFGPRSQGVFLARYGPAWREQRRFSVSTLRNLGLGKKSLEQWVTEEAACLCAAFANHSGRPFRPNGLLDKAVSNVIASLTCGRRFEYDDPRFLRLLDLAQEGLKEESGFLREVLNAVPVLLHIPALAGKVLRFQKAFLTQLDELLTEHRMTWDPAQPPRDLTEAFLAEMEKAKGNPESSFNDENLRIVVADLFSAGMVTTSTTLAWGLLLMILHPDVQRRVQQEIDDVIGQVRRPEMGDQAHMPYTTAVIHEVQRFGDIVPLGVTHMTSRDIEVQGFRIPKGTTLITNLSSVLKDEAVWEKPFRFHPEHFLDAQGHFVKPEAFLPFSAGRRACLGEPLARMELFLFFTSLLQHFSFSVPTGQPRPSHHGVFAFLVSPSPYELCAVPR

| Structure (SMILES) | IC50 (CYP3A4 (CYP3A)) [nM] | RLM ([2]; rat liver microsomal data) [µL/min/mg] | IC50 [3, 6] [µM] | HLM ([4]; human liver microsomal data) [µL/min/mg] | IC50 (CYP2D6; [7]) [µM] | RLM ([2]; rat liver microsomes) [µL/min/mg] | HLM ([4]; human liver microsomes) [µL/min/mg] | other results |
| --- | --- | --- | --- | --- | --- | --- | --- | --- |
| CC(C)Cc1cnc2c(c1)[C@@H](NC[C@H](O)[C@@H](Cc1cccc(-c3nccs3)c1)NC(=O)[C@H]1CCCO1)CC1(CCC1)O2 [compound 795] | 200 | 64 | 0.286 | 127 | 0.6 | – | – | IC50 [1, 5]: 0.206 µM |
| CC(=O)N[C@@H](Cc1cccc(F)c1)[C@H](O)CN[C@H]1CC2(CCC2)Oc2c(-c3ccncc3)cc(Cl)cc21 [compound 595] | 100 | – | – | – | – | 736 | 147 | IC50 [1, 8]: 0.051 µM; IC50 [3, 9]: 0.077 µM; IC50 (CYP2D6; 2D6 IC50, CYP2D6 inhibition): 0.5 µM |
| COCC(=O)N[C@@H](Cc1cc(F)cc(-c2nccs2)c1)[C@H](O)CN[C@H]1CC2(CCC2)Oc2ncc(C3CC3)cc21 [compound 749] | 300 | – | – | – | – | 51 | 59 | IC50 [1, 10]: 0.074 µM; IC50 [3, 11]: 0.046 µM; IC50 (CYP2D6; [12]): 1.6 µM |
| COCC(=O)N[C@@H](Cc1cc(F)cc(F)c1)[C@H](O)CN[C@H]1CC2(CCC2)Oc2c(Br)cc(CC(C)(C)C)cc21 [compound 464] | 1500 | 364 | – | 463 | – | – | – | IC50 ([1]; HEK293, Table 2, HEK cells, read-out: HEK cell assay): 0.091 µM; IC50 ([3]; Table 2, read-out: BACE1 FRET assay): 0.004 µM; IC50 (CYP2D6; [13]): 11.5 µM |
| C#Cc1cccc(C[C@H](NC(=O)[C@@H](C)OC)[C@H](O)CN[C@H]2CC3(CCC3)Oc3ncc(CC(C)C)cc32)c1 [Example 777, (2R)-N-((1S,2R)-1-(3-ethynylbenzyl)-2-hydroxy-3-(((4′S)-6′-(2-methylpropyl)-3′,4′-dihydrospiro[cyclobutane-1,2′-pyrano[2,3-b]pyridin]-4′-yl)amino)propyl)-2-methoxypropanamide] | 100 | 38 | 0.006 | 29 | 2.1 | – | – | IC50 [1, 5]: 0.013 µM |
| CO[C@H](C)C(=O)N[C@@H](Cc1cncs1)[C@H](O)CN[C@H]1CC2(CCC2)Oc2c1cc(CC(C)(C)C)nc2-c1ccccn1 [compound 781] | 400 | 82 | 0.071 | 104 | ≥ 27 | – | – | IC50 [1, 5]: 0.206 µM |
| CO[C@H](C)C(=O)N[C@@H](Cc1ccc2c(c1)OCO2)[C@H](O)CN[C@H]1CC2(CCC2)Oc2c1cc(CC(C)C)nc2-c1ccncc1 [compound 670] | ≤ 30 | – | – | – | – | 100 | 40 | IC50 [1, 10]: 0.294 µM; IC50 [3, 11]: 0.06 µM; IC50 (CYP2D6; [12]): 0.8 µM |
| COCC(=O)N[C@@H](Cc1cc(F)cc(F)c1)[C@H](O)CN[C@H]1CC2(CCC2)Oc2c1cc(CC(C)(C)C)nc2-c1cnc[nH]1 [compound 508] | 100 | 43 | – | 17 | 1.2 | – | – | IC50 [1, 14]: 0.005 µM; IC50 [3, 15]: 0.024 µM |
| COCC(=O)N[C@@H](Cc1cc(-c2nccs2)cc(-c2nccs2)c1)[C@H](O)CN[C@H]1CC2(CCC2)Oc2ncc(CC(C)(C)C)cc21 [compound 839] | 100 | 57 | 0.258 | 62 | 0.4 | – | – | IC50 [1, 5]: 0.477 µM |
| COCC(=O)N[C@@H](Cc1cccc(-c2nccs2)c1)[C@H](O)CN[C@H]1CC2(CCC2)Oc2ncc([C@@H]3CC3(C)C)cc21 [compound 857, N-((1S,2R)-3-(((4′S)-6′-((1R)-2,2-dimethylcyclopropyl)-3′,4′-dihydrospiro[cyclobutane-1,2′-pyrano[2,3-b]pyridin]-4′-yl)amino)-2-hydroxy-1-(3-(1,3-thiazol-2-yl)benzyl)propyl)-2-methoxyacetamide] | 100 | 46 | 0.004 | 51 | – | – | – | IC50 [1, 16]: 0.008 µM; IC50 (CYP2D6; [13]): 0.35 µM |
| COCC(=O)N[C@@H](Cc1cccc(F)c1)[C@H](O)CN[C@H]1CC2(CCC2)Oc2c(-c3cscn3)cc(CC(C)C)cc21 [compound 526] | 600 | 503 | – | 351 | 7.3 | – | – | IC50 [1, 14]: 0.053 µM; IC50 [3, 15]: 0.006 µM |
| CO[C@H](C)C(=O)N[C@@H](Cc1ccc2c(c1)OCO2)[C@H](O)CN[C@H]1CC2(CCC2)Oc2ncc(CC(F)(F)F)cc21 [compound 519] | 300 | 71 | – | 33 | 7.4 | – | – | IC50 [1, 14]: 0.81 µM; IC50 [3, 15]: 0.255 µM |
| COCC(=O)N[C@@H](Cc1cccc(F)c1)[C@H](O)CN[C@H]1CC2(CCC2)Oc2c(-c3ccnc(OC)c3)cc(CC(C)(C)C)cc21 [compound 654] | 1000 | – | – | – | – | 477 | 399 | IC50 [1, 8]: 0.034 µM; IC50 [3, 9]: 0.006 µM; IC50 (CYP2D6; 2D6 IC50, CYP2D6 inhibition): 9.9 µM |
| CCOCC(=O)N[C@@H](Cc1ccc(F)c(-c2nccs2)c1)[C@H](O)CN[C@H]1CC2(CCC2)Oc2ncc(CC(C)(C)C)cc21 [compound 904] | 100 | 47 | 0.004 | 38 | – | – | – | IC50 [1, 16]: 0.062 µM; IC50 (CYP2D6; [13]): 0.5 µM |
| COCC(=O)N[C@@H](Cc1cc(F)cc(F)c1)[C@H](O)CN[C@H]1CC2(CCC2)Oc2c(-c3ccccc3F)cc(CC(C)(C)C)cc21 [compound 487] | 1600 | 387 | – | 394 | 21.4 | – | – | IC50 [1, 14]: 0.118 µM; IC50 [3, 15]: 0.015 µM |
| CC(C)(C)Cc1cnc2c(c1)[C@@H](NC[C@@H](O)[C@H](Cc1ccc3c(c1)OCO3)NC(=O)[C@@H]1CCO1)CC1(CCC1)O2 [compound 525] | 200 | 101 | – | 32 | 3.1 | – | – | IC50 [1, 14]: 0.019 µM; IC50 [3, 15]: 0.021 µM |
| CNc1nc(CC(C)(C)C)cc2c1OC1(CCC1)C[C@@H]2NC[C@@H](O)[C@H](Cc1ccc(F)c(-c2nccs2)c1)NC(=O)COC [compound 716, N-((1S,2R)-3-(((4′S)-6′-(2,2-dimethylpropyl)-8′-(methylamino)-3′,4′-dihydrospiro[cyclobutane-1,2′-pyrano[2,3-c]pyridin]-4′-yl)amino)-1-(4-fluoro-3-(1,3-thiazol-2-yl)benzyl)-2-hydroxypropyl)-2-methoxyacetamide] | 400 | – | – | – | – | 190 | 123 | IC50 [1, 10]: 0.025 µM; IC50 [3, 11]: 0.032 µM; IC50 (CYP2D6; [12]): 1.5 µM |
| COCC(=O)N[C@H](Cc1cccc(-c2nccs2)c1)[C@@H](O)CN[C@H]1CC2(CCC2)Oc2ncc(C3CCCC3)cc21 [compound 810] | 100 | 271 | 4.49 | 274 | 0.5 | – | – | IC50 [1, 5]: 1.34 µM |
| COCC(=O)N[C@@H](Cc1cccc(-c2nccs2)c1)[C@H](O)CN[C@H]1CC2(CCC2)Oc2ncc(C3CCCC3)cc21 [compound 886] | 200 | 64 | 0.143 | 55 | – | – | – | IC50 [1, 16]: 0.136 µM; IC50 (CYP2D6; [13]): 0.3 µM |
| Cc1csc(CN2CCO[C@H](C(=O)N[C@@H](Cc3ccc(F)cc3)[C@H](O)CN[C@H]3CC4(CCC4)Oc4ncc(CC(C)(C)C)cc43)C2)n1 [compound 734] | 100 | – | – | – | – | 335 | 543 | IC50 [1, 10]: 0.014 µM; IC50 [3, 11]: 0.012 µM; IC50 (CYP2D6; [12]): 2.4 µM |
